Measurements published in BindingDB's records for patent US8507533 (Pfizer, 2013).
“And” between values parts separate entries of the source, which are not always exact repeats. Identical values can stand only once.

Target: Glucagon receptor (Homo sapiens, UniProt P47871)
Experiment: Glucagon SPA Assay
Details: pH 7.4
From the text: The Glucagon SPA assay is used to determine the ability of test compounds to block the binding of glucagon-cex to the glucagon receptors.

Chain of Glucagon receptor (P47871 whole entry): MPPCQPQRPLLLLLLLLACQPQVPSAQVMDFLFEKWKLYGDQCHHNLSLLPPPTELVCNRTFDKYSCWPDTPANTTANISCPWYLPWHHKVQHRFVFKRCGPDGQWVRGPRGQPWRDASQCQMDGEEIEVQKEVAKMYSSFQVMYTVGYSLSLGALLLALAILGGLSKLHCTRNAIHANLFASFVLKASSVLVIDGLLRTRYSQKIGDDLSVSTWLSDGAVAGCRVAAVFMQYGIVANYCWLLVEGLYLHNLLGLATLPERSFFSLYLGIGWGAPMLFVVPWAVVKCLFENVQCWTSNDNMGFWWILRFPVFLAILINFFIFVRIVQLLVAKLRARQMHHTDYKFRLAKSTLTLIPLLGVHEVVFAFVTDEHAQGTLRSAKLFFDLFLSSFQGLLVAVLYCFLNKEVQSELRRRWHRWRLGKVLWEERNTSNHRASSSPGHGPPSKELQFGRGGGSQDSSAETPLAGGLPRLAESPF

SMILES	Ki
CCCC(Oc1ccc(-n2cc(-c3ccccc3)cn2)nc1)c1ccc(C(=O)NCCC(=O)O)cc1 (configuration not stated) [US8507533, 133]	58 nM
Cc1cc(-n2cc(C(F)(F)F)cn2)ccc1C(Nc1ccc(C(=O)NCCC(=O)O)cn1)C1CCCCC1 (single isomer, unassigned) [US8507533, 337]	183 nM and 297 nM
